# Where two headings read alike, the source gives them in different places.
# Key:
# TC32 = test: Cytotoxicity, resazurin fluorescence, TC32; type: cell-based
# Method in brief: (§1)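 Cells seeded at 1000-5000/well were left to attach and grow 24 hr, then given compounds in half-log steps from 0.3 nM-10 μM. Viability was read by resazurin fluorescence after 72 hr continuous exposure, and GI50 values were estimated from the curves.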
# PC3 [1] = test: Cytotoxicity, resazurin fluorescence, PC3; type: cell-based
# Method in brief: as §1
# TC71 = test: Cytotoxicity, resazurin fluorescence, TC71; type: cell-based; conditions: Table 6, 72 hr, EWS cells
# 5838 = test: Cytotoxicity, resazurin fluorescence, 5838; type: cell-based; conditions: Table 6; 72 hr; express EWS-ERG
# A673 = test: Cytotoxicity, resazurin fluorescence, A673; type: cell-based; conditions: Table 6, 72 hr, EWS cells
# RDES = test: Cytotoxicity, resazurin fluorescence, RDES; type: cell-based; conditions: Table 6, 72 hr, EWS cells
# SK.ES1 = test: Cytotoxicity, resazurin fluorescence, SK.ES1; type: cell-based; conditions: Table 6, 72 hr, EWS cells
# ES3 = test: Cytotoxicity, resazurin fluorescence, ES3; type: cell-based; conditions: Table 6; 72 hr; EWS cells
# ES4 = test: Cytotoxicity, resazurin fluorescence, ES4; type: cell-based; conditions: Table 6; 72 hr; EWS cells
# ES7 = test: Cytotoxicity, resazurin fluorescence, ES7; type: cell-based; conditions: Table 6, 72 hr, EWS cells
# ES8 = test: Cytotoxicity, resazurin fluorescence, ES8; type: cell-based; conditions: Table 6, 72 hr, EWS cells
# EWS cells = test: Cytotoxicity, average over Ewing (EWS) cell panel; type: cell-based; conditions: Table 6; 72 hr; average of EWS cells
# Protocol: (§2) Exemplary compounds of the presently-disclosed subject matter were assessed for cytotoxicity (Table 5) in Ewing sarcoma (TC32) and non-Ewing (PC3 prostate cancer). […] Cells (1000-5000/well) were seeded in 96-well plates and allowed to attach and grow for 24 hr prior to adding compounds in half-log increments from 0.3 nM-10 μM. Cell viability was assessed after 72 hr continuous incubation with compounds using resazurin fluorescence. GI50 values were estimated using GraphPad Prism.
# BL1395 = test: Cytotoxicity, resazurin fluorescence, BL1395; type: cell-based; conditions: read-out: GI50 BL1395
# A549 = test: Cytotoxicity, resazurin fluorescence, A549; type: cell-based; conditions: read-out: GI50 A549
# DU145 = test: Cytotoxicity, resazurin fluorescence, DU145; type: cell-based; conditions: read-out: GI50 DU145
# H460 = test: Cytotoxicity, resazurin fluorescence, H460; type: cell-based; conditions: read-out: GI50 H460
# Hela = test: Cytotoxicity, resazurin fluorescence, Hela; type: cell-based; conditions: read-out: GI50 Hela
# HepG2 = test: Cytotoxicity, resazurin fluorescence, HepG2; type: cell-based; conditions: read-out: GI50 HepG2
# LNCap = test: Cytotoxicity, resazurin fluorescence, LNCap; type: cell-based; conditions: read-out: GI50 LNCap
# PANC1 = test: Cytotoxicity, resazurin fluorescence, PANC1; type: cell-based; conditions: read-out: GI50 PANC1
# Non EWS cells = test: Cytotoxicity, average over non-Ewing cell panel; type: cell-based; conditions: read-out: GI50 Average, Non EWS cells
# Protocol: as §2
# EWS-FLI1 = conditions: screen of more than 50,000 natural products and synthetic compounds; cited from earlier work
# [2] = cited from earlier work
# log P = type: physicochemical; conditions: Table 2
# TC32 cells = test: Potency IC50 in TC32 cells and selectivity; type: cell-based; conditions: Homo sapiens, TC-32, Table 2, read-out: IC50 TC32
# PC3 [3] = test: IC50 in PC3 cells; type: cell-based; conditions: Homo sapiens, PC-3, read-out: IC50 PC2, Table 2; head prints PC2, text PC3
# HS68 = test: Cytotoxicity, 72 hr resazurin assay, HS68 fibroblast; type: cell-based; conditions: for GI50: Homo sapiens, Hs68, fibroblast, non-tumor control; for AUC HS68: area under concentration-efficacy curve, possible range 0-20000
# Text: (§3) A fibroblast cell line (HS68 (FIG. 2E)) was used as a non-tumor control. The area under the concentration-efficacy curve (AUC; possible range of 0-20000) was used to estimate an alternate metric to GI50 for cases of shallow efficacy (e.g., the limited effect in HS68 cells).
# JR1 = test: Cytotoxicity, 72 hr resazurin assay, JR1 embryonal rhabdomyosarcoma; type: cell-based; conditions: for AUC JR1: area under concentration-efficacy curve, possible range 0-20000; for GI50: embryonal
# Text: as §3
# RD = test: Cytotoxicity, 72 hr resazurin assay, RD embryonal rhabdomyosarcoma; type: cell-based; conditions: for GI50: Homo sapiens, RD, embryonal; for AUC RD: area under concentration-efficacy curve, possible range 0-20000
# Text: as §3
# RH30 = test: Cytotoxicity, 72 hr resazurin assay, RH30 alveolar rhabdomyosarcoma; type: cell-based; conditions: for GI50: Rh30, alveolar; for AUC RH30: area under concentration-efficacy curve, possible range 0-20000
# Text: as §3
# RH41 = test: Cytotoxicity, 72 hr resazurin assay, RH41 alveolar rhabdomyosarcoma; type: cell-based; conditions: for GI50: Homo sapiens, Rh41, alveolar; for AUC RH41: area under concentration-efficacy curve, possible range 0-20000
# Text: as §3
# rhabdomyosarcoma cells = test: Cytotoxicity, 72 hr resazurin assay, four rhabdomyosarcoma cell lines; type: cell-based; conditions: JR1, RD, RH30, RH41, read-out: GI50 range in the four cell lines tested
# Text: as §3
# [4] = Table 6, 72 hr, lymphocyte origin
# [5] = Table 6, 72 hr, average of non EWS cells
# [6] = Homo sapiens, TC-32, 72 h, read-out: GI50 TC32, Table 5
compound,measurement,setting,value
"mithramycin A [MTM, reference compound]",GI50,"TC32; Table 5, 72 hr, read-out: GI50 TC32",10 nM
same,GI50,"TC32; Table 6, 72 hr, EWS cells, read-out: GI50 TC32",10.4 nM
same,GI50,"PC3 [1]; Table 5, 72 hr, read-out: GI50 PC3",11 nM
same,GI50,"PC3 [1]; Table 6, 72 hr, non EWS cells, read-out: GI50 PC3",11.3 nM
same,GI50,TC71,10.3 nM
same,GI50,5838,11.2 nM
same,GI50,A673,9.1 nM
same,GI50,RDES,10.6 nM
same,GI50,SK.ES1,10.2 nM
same,GI50,ES3,12.8 nM
same,GI50,ES4,7.3 nM
same,GI50,ES7,10 nM
same,GI50,ES8,17.4 nM
same,GI50,EWS cells,10.9 nM
same,GI50,BL1395; [4],9.9 nM
same,GI50,"A549; Table 6, 72 hr, non EWS cells",54 nM
same,GI50,"DU145; Table 6, 72 hr, non EWS cells",16.4 nM
same,GI50,"H460; Table 6, 72 hr, non EWS cells",6.8 nM
same,GI50,"Hela; Table 6, 72 hr, non EWS cells",28.4 nM
same,GI50,"HepG2; Table 6, 72 hr, hepatic origin",28.4 nM
same,GI50,"LNCap; Table 6, 72 hr, non EWS cells",82.7 nM
same,GI50,"PANC1; Table 6, 72 hr, non EWS cells",22.3 nM
same,GI50,Non EWS cells; [5],28.9 nM
same,inhibition of EWS-FLI1,EWS-FLI1,top inhibitor
same,clinical trial outcome,"[2]; NCI clinical study, Ewing sarcoma patients","terminated early, due to toxicities"
same,therapeutic index,"[2]; clinical evaluation, 1960s and 70s",narrow therapeutic index
COC(C(=NOCc1cc2ccccc2[nH]1)C(O)C(C)O)C1Cc2cc3cc(OC4CC(OC5CC(O)C(O)C(C)O5)C(O)C(C)O4)c(C)c(O)c3c(O)c2C(=O)C1OC1CC(OC2CC(OC3CC(C)(O)C(O)C(C)O3)C(O)C(C)O2)C(O)C(C)O1 (stereo not shown) [YL-C09],logP,log P,1.9
same,IC50,TC32 cells,1.96 nM
same,IC50,PC3 [3],5.65 nM
same,GI50,TC32; [6],17 nM
same,GI50,"PC3 [1]; Homo sapiens, PC-3, 72 h, Table 6, non EWS cells, read-out: GI50 PC3",19.3 nM
same,GI50,"TC71; Homo sapiens, TC-71",11.5 nM
same,GI50,5838,27.5 nM
same,GI50,"A673; Homo sapiens, A673",38.1 nM
same,GI50,RDES; RD-ES,16.8 nM
same,GI50,"SK.ES1; Homo sapiens, SK-ES1",18 nM
same,GI50,ES3,19.2 nM
same,GI50,ES4,16.6 nM
same,GI50,"ES7; Homo sapiens, ES7",14.5 nM
same,GI50,"ES8; Homo sapiens, ES8",31.5 nM
same,GI50,EWS cells,21.1 nM
same,GI50,BL1395; [4],24.1 nM
same,GI50,"A549; Homo sapiens, A549, Table 6, 72 hr, non EWS cells",22.6 nM
same,GI50,"H460; Homo sapiens, NCI-H460, Table 6, 72 hr, non EWS cells",21.5 nM
same,GI50,"Hela; Homo sapiens, HeLa, Table 6, 72 hr, non EWS cells",27.1 nM
same,GI50,"HepG2; Homo sapiens, HepG2, Table 6, 72 hr, hepatic origin",80.1 nM
same,GI50,"LNCap; Homo sapiens, LNCaP, Table 6, 72 hr, non EWS cells",63.3 nM
same,GI50,"PANC1; Homo sapiens, PANC-1, Table 6, 72 hr, non EWS cells",33.4 nM
same,GI50,Non EWS cells; [5],34.5 nM
same,GI50,HS68,1240 nM
same,AUC HS68,HS68,15517
same,AUC JR1,JR1,8554
same,GI50,JR1,15 nM
same,GI50,RD,20.7 nM
same,AUC RD,RD,8443
same,GI50,RH30,24.3 nM
same,AUC RH30,RH30,7400
same,GI50,RH41,24.1 nM
same,AUC RH41,RH41,9239
same,GI50,rhabdomyosarcoma cells,15 to 25 nM
COC(C(=NOCCNC(=O)c1[nH]c2ccc(Cl)cc2c1-c1c(C)noc1C)C(O)C(C)O)C1Cc2cc3cc(OC4CC(OC5CC(O)C(O)C(C)O5)C(O)C(C)O4)c(C)c(O)c3c(O)c2C(=O)C1OC1CC(OC2CC(OC3CC(C)(O)C(O)C(C)O3)C(O)C(C)O2)C(O)C(C)O1 (stereo not shown) [YL-C110],logP,log P,2.56
same,IC50,TC32 cells,2.18 nM
same,IC50,PC3 [3],7.1 nM
same,GI50,TC32; [6],14 nM
same,GI50,"TC32; Homo sapiens, TC-32, 72 h, read-out: GI50 TC32, Table 6, EWS cells",14.3 nM
same,GI50,"PC3 [1]; Homo sapiens, PC-3, 72 h, read-out: GI50 PC3, Table 5",27 nM
same,GI50,"PC3 [1]; Homo sapiens, PC-3, 72 h, read-out: GI50 PC3, Table 6, non EWS cells",26.8 nM
same,GI50,"TC71; Homo sapiens, TC-71",10.7 nM
same,GI50,5838,26.6 nM
same,GI50,"A673; Homo sapiens, A673",33.5 nM
same,GI50,RDES; RD-ES,13.3 nM
same,GI50,"SK.ES1; Homo sapiens, SK-ES1",18.8 nM
same,GI50,ES3,18.8 nM
same,GI50,ES4,10.1 nM
same,GI50,"ES7; Homo sapiens, ES7",13.6 nM
same,GI50,"ES8; Homo sapiens, ES8",16.6 nM
same,GI50,EWS cells,17.6 nM
same,GI50,"BL1395; Lymphocyte, 72 h",49.4 nM
same,GI50,"A549; Homo sapiens, A549, 72 h",46.7 nM
same,GI50,"DU145; Homo sapiens, DU-145, 72 h",16.2 nM
same,GI50,"H460; Homo sapiens, NCI-H460, 72 h",33.2 nM
same,GI50,"Hela; Homo sapiens, HeLa, 72 h",102 nM
same,GI50,"HepG2; Homo sapiens, HepG2, 72 h",466 nM
same,GI50,"LNCap; Homo sapiens, LNCaP, 72 h",44.3 nM
same,GI50,"PANC1; Homo sapiens, PANC-1, 72 h",87.5 nM
same,GI50,Non EWS cells; 72 h,96.9 nM
same,GI50,HS68,33.6 nM
same,AUC HS68,HS68,16245
same,AUC JR1,JR1,8535
same,GI50,JR1,14.9 nM
same,GI50,RD,22.4 nM
same,AUC RD,RD,8367
same,GI50,RH30,21 nM
same,AUC RH30,RH30,7413
same,GI50,RH41,24.7 nM
same,AUC RH41,RH41,9477
same,GI50,rhabdomyosarcoma cells,15 to 25 nM
